According to PMC4167698, “Fatty Acid Esters of Phloridzin Induce Apoptosis of Human Liver Cancer Cells through Altered Gene Expression” (PLoS ONE, 2014):
One block for each compound: values may come before it.

Legend:
THP-1 cells = experiment: MTS cell proliferation assay, THP-1; type: cell-based, human; settings: for EC50: MTS
Description: (§1) Cell viability was determined by using the MTS assay. In brief, HepG2 cells (5×10^3 cells/100 µL/well), MDA-MB-231 (5×10^3 cells/100 µL/well), THP-1 (25×10^3/100 µL/well), normal human and rat hepatocytes (1×10^4 cells/100 µL/well) were plated in triplicate, in a 96 well sterile flat bottom tissue culture plates. […] Thereby, cells were exposed to various concentrations (0.1, 1, 10, 25, 50, 75, 100 µM) of each treatment. Controls consist of cells with media containing DMSO (<0.5%), test blank wells contained the test compound in media with no cells and blank wells contained media with no cells. After additional 3, 6, 12, 18 or 24 h, 20 µL of the MTS reagent in combination with the electron coupling agent, phenazine methosulfate were added to the wells and cells were incubated in a humidified incubator for 3 h. Absorbance at 490 nm (OD490) was measured by using a Flurostar Optima microplate reader (BMG Labtech, Cary, NC, USA) to obtain the number of viable cells relative to the control population. Percentage of viability of the test compound treated cells are expressed as percentage compared to control (<0.5% DMSO). […] The selective index (SI) of the fatty acid esters of phloridzin is defined as the ratio of cytotoxicity (EC50 values) on normal HP-F cells to solid cancer HepG2, MDA-MB-231 cells (SI = EC50 on HP-F cells/EC50 on solid cancer cells). Samples with SI values greater than three were considered to have high selectivity towards cancer cells.

HepG2 cells [1] = experiment: MTS cell proliferation assay, HepG2; type: cell-based, human; settings: for EC50: MTS
Description: as §1

MDA-MB-231 cells = experiment: MTS cell proliferation assay, MDA-MB-231; type: cell-based, human; settings: for EC50: MTS
Description: as §1

[2] = tested on: normal human hepatocytes (HP-F); experiment: MTS cell viability assay, normal human hepatocytes; type: cell-based; settings: 24 h
Description: as §1

HepG2 cells [3] = experiment: Human cancer drug targets RT2 profiler PCR array; type: cell-based
Description: Total RNA extraction was performed using Arum Total RNA minikit (Bio-Rad, Hercules, CA, USA). RNA concentration and purity was determined by measuring the absorbance using a NanoDrop (NanoDrop Technologies, Wilmington, DE, USA). RNA integrity was assessed by formaldehyde agarose gel electrophoresis. RNA (400 ng) was used to synthesize cDNA using RT^2 First Strand kit (SABiosciences, Frederick, MD, USA). RT^2 RNA QC PCR arrays (SABiosciences, Frederick, MD, USA) was used to assess the quality of cDNA samples before characterization with the human cancer drug targets RT^2 profiler PCR array (SABiosciences, Frederick, MD, USA). Gene expression profiles of 84 genes were investigated using the human cancer drug targets RT^2 profiler PCR array (PAHS-507ZD) on a Bio-Rad CFX Connect (Bio-Rad, Hercules, CA, USA) using RT^2 real-time SYBR green PCR master mix (SABiosciences, Frederick, MD, USA). […] Reproducibility was maintained by using three biological replicates from three individual experiments.

[4] = 84-gene array, vs vehicle control

Structure (SMILES): CC/C=C\C/C=C\C/C=C\CCCCCCCC(=O)O [α-Linolenic acid, α-linolenic acid]
- EC50 (THP-1 cells; THP-1, 3 h): > 100 µM
- EC50 (THP-1 cells; THP-1, 6 h): > 100 µM
- EC50 (THP-1 cells; THP-1, 12 h): > 100 µM
- EC50 (THP-1 cells; THP-1, 18 h): > 100 µM
- EC50 (THP-1 cells; THP-1, 24 h): > 100 µM
- EC50 (HepG2 cells [1]; HepG2, 3 h): > 100 µM
- EC50 (HepG2 cells [1]; HepG2, 6 h): > 100 µM
- EC50 (HepG2 cells [1]; HepG2, 12 h): > 100 µM
- EC50 (HepG2 cells [1]; HepG2, 18 h): > 100 µM
- EC50 (HepG2 cells [1]; HepG2, 24 h): > 100 µM
- EC50 (MDA-MB-231 cells; MDA-MB-231, 3 h): > 100 µM
- EC50 (MDA-MB-231 cells; MDA-MB-231, 6 h): > 100 µM
- EC50 (MDA-MB-231 cells; MDA-MB-231, 12 h): > 100 µM
- EC50 (MDA-MB-231 cells; MDA-MB-231, 18 h): > 100 µM
- EC50 (MDA-MB-231 cells; MDA-MB-231, 24 h): > 100 µM
- EC50 [2]: > 100 µM

- EC50 (THP-1 cells; THP-1, 3 h): > 100 µM
- EC50 (THP-1 cells; THP-1, 6 h): > 100 µM
- EC50 (THP-1 cells; THP-1, 12 h): > 100 µM
- EC50 (THP-1 cells; THP-1, 18 h): > 100 µM
- EC50 (THP-1 cells; THP-1, 24 h): > 100 µM
- EC50 (HepG2 cells [1]; HepG2, 3 h): > 100 µM
- EC50 (HepG2 cells [1]; HepG2, 6 h): > 100 µM
- EC50 (HepG2 cells [1]; HepG2, 12 h): > 100 µM
- EC50 (HepG2 cells [1]; HepG2, 18 h): > 100 µM
- EC50 (HepG2 cells [1]; HepG2, 24 h): > 100 µM
- EC50 (MDA-MB-231 cells; MDA-MB-231, 3 h): > 100 µM
- EC50 (MDA-MB-231 cells; MDA-MB-231, 6 h): > 100 µM
- EC50 (MDA-MB-231 cells; MDA-MB-231, 12 h): > 100 µM
- EC50 (MDA-MB-231 cells; MDA-MB-231, 18 h): > 100 µM
- EC50 (MDA-MB-231 cells; MDA-MB-231, 24 h): > 100 µM
Structure (SMILES): CC/C=C\C/C=C\C/C=C\C/C=C\C/C=C\C/C=C\CCC(=O)O [DHA, decosahexaenoic acid]
- EC50 [2]: > 100 µM

- EC50 (THP-1 cells; THP-1, 3 h): 65.8 ± 5.2 µM
- EC50 (THP-1 cells; THP-1, 6 h): 49.5 ± 3.8 µM
- EC50 (THP-1 cells; THP-1, 12 h): 42.7 ± 3 µM
- EC50 (THP-1 cells; THP-1, 18 h): 35.8 ± 2.8 µM
- EC50 (THP-1 cells; THP-1, 24 h): 27.3 ± 1.2 µM
- EC50 (HepG2 cells [1]; HepG2, 3 h): 76.9 ± 5.8 µM
- EC50 (HepG2 cells [1]; HepG2, 6 h): 64.4 ± 5.9 µM
- EC50 (HepG2 cells [1]; HepG2, 12 h): 56.2 ± 4.9 µM
- EC50 (HepG2 cells [1]; HepG2, 18 h): 54.2 ± 3.9 µM
- EC50 (HepG2 cells [1]; HepG2, 24 h): 51.9 ± 3.8 µM
- EC50 (MDA-MB-231 cells; MDA-MB-231, 3 h): 132 ± 9.9 µM
- EC50 (MDA-MB-231 cells; MDA-MB-231, 6 h): 83.7 ± 7.5 µM
- EC50 (MDA-MB-231 cells; MDA-MB-231, 12 h): 70.2 ± 6.1 µM
- EC50 (MDA-MB-231 cells; MDA-MB-231, 18 h): 62.6 ± 5.1 µM
- EC50 (MDA-MB-231 cells; MDA-MB-231, 24 h): 55.5 ± 4.5 µM
Structure (SMILES): CC/C=C\C/C=C\C/C=C\C/C=C\C/C=C\C/C=C\CCC(=O)OC[C@H]1O[C@@H](Oc2cc(O)cc(O)c2C(=O)CCc2ccc(O)cc2)[C@H](O)[C@@H](O)[C@@H]1O [Pz-DHA ester, DHA ester of Pz]
- SI (selective index) (THP-1 cells; EC50 of HP-F cells/EC50 on THP-1, 24 h): 21.3
- SI (selective index) (HepG2 cells [1]; EC50 of HP-F cells/EC50 on HepG2, 24 h): 11.2
- number of genes down-regulated (more than two-fold) (HepG2 cells [3]; [4]): 41 genes
- number of genes unaffected (HepG2 cells [3]; [4]): 35 genes
- number of genes up-regulated (more than two-fold) (HepG2 cells [3]; [4]): 8 genes
- Fold change of gene expression relative to control: BCL2 (HepG2 cells [3]; Apoptosis gene, RT-PCR array): −2.8 fold
- Fold change of gene expression relative to control: AKT1 (HepG2 cells [3]; RT-PCR array): −6.1 fold
- Fold change of gene expression relative to control: AKT2 (HepG2 cells [3]; RT-PCR array): −2.8 fold
- Fold change of gene expression relative to control: AURKB (HepG2 cells [3]; RT-PCR array): −2.0 fold
- Fold change of gene expression relative to control: CDK2 (HepG2 cells [3]; RT-PCR array): −2.0 fold
- Fold change of gene expression relative to control: CDK9 (HepG2 cells [3]; RT-PCR array): −2.1 fold
- Fold change of gene expression relative to control: EGFR (HepG2 cells [3]; RT-PCR array): −8.9 fold
- Fold change of gene expression relative to control: ERBB2 (HepG2 cells [3]; RT-PCR array): −5.7 fold
- Fold change of gene expression relative to control: ERBB3 (HepG2 cells [3]; RT-PCR array): −6.1 fold
- Fold change of gene expression relative to control: FLT1 (HepG2 cells [3]; RT-PCR array): 16.5 fold
- Fold change of gene expression relative to control: GRB2 (HepG2 cells [3]; RT-PCR array): −8.6 fold
- Fold change of gene expression relative to control: HDAC1 (HepG2 cells [3]; RT-PCR array): −2.6 fold
- Fold change of gene expression relative to control: HDAC4 (HepG2 cells [3]; RT-PCR array): −4.1 fold
- Fold change of gene expression relative to control: HDAC6 (HepG2 cells [3]; RT-PCR array): −5.4 fold
- Fold change of gene expression relative to control: HDAC7 (HepG2 cells [3]; RT-PCR array): −6.0 fold
- Fold change of gene expression relative to control: HDAC11 (HepG2 cells [3]; RT-PCR array): −20.1 fold
- Fold change of gene expression relative to control: IGF1R (HepG2 cells [3]; RT-PCR array): −4.2 fold
- Fold change of gene expression relative to control: IGF2 (HepG2 cells [3]; RT-PCR array): −2.3 fold
- Fold change of gene expression relative to control: IRF5 (HepG2 cells [3]; RT-PCR array): −2.3 fold
- Fold change of gene expression relative to control: KDR (HepG2 cells [3]; RT-PCR array): −2.8 fold
- Fold change of gene expression relative to control: KRAS (HepG2 cells [3]; RT-PCR array): −4.0 fold
- Fold change of gene expression relative to control: MDM4 (HepG2 cells [3]; RT-PCR array): −2.1 fold
- Fold change of gene expression relative to control: NF−κB (HepG2 cells [3]; RT-PCR array): −4.3 fold
- Fold change of gene expression relative to control: PARP1 (HepG2 cells [3]; RT-PCR array): −5.4 fold
- Fold change of gene expression relative to control: PDGFRA (HepG2 cells [3]; RT-PCR array): −2.8 fold
- Fold change of gene expression relative to control: PDGFRB (HepG2 cells [3]; RT-PCR array): −16.8 fold
- Fold change of gene expression relative to control: PIK3C2A (HepG2 cells [3]; RT-PCR array): −2.2 fold
- Fold change of gene expression relative to control: PLK1 (HepG2 cells [3]; RT-PCR array): −2.9 fold
- Fold change of gene expression relative to control: PRKCA (HepG2 cells [3]; RT-PCR array): −8.1 fold
- Fold change of gene expression relative to control: PRKCD (HepG2 cells [3]; RT-PCR array): −2.1 fold
- Fold change of gene expression relative to control: PRKCE (HepG2 cells [3]; RT-PCR array): −5.6 fold
- Fold change of gene expression relative to control: TERT (HepG2 cells [3]; RT-PCR array): −5.6 fold
- Fold change of gene expression relative to control: TOP2A (HepG2 cells [3]; RT-PCR array): −2.7 fold
- Fold change of gene expression relative to control: TOP2B (HepG2 cells [3]; RT-PCR array): −2.3 fold
- Fold change of gene expression relative to control: TP53 (HepG2 cells [3]; RT-PCR array): −7.4 fold
- Fold change of gene expression relative to control: mTOR (HepG2 cells [3]; RT-PCR array): −3.6 fold
- Fold change of gene expression relative to control: FLT1 (HepG2 cells [3]; RT-PCR array, listed as Phloridzin-DHA): +16.5 fold
- SI (selective index) (MDA-MB-231 cells; EC50 of HP-F cells/EC50 on MDA-MB-231, 24 h): 10.5
- EC50 [2]: > 100 µM

Structure (SMILES): COc1cccc2c1C(=O)c1c(O)c3c(c(O)c1C2=O)C[C@@](O)(C(C)=O)C[C@@H]3O[C@H]1C[C@H](N)[C@H](O)[C@H](C)O1 [Daunorubicin, daunorubicin]
- EC50 (THP-1 cells; Homo sapiens, THP-1, 3 h): 48.1 ± 2.8 µM
- EC50 (THP-1 cells; Homo sapiens, THP-1, 6 h): 35.2 ± 2.9 µM
- EC50 (THP-1 cells; Homo sapiens, THP-1, 12 h): 12.6 ± 0.8 µM
- EC50 (THP-1 cells; Homo sapiens, THP-1, 18 h): 1.4 ± 0.2 µM
- EC50 (THP-1 cells; Homo sapiens, THP-1, 24 h): 0.02 ± 0.01 µM

- EC50 (MDA-MB-231 cells; Homo sapiens, MDA-MB-231, 3 h): > 100 µM
- EC50 (MDA-MB-231 cells; Homo sapiens, MDA-MB-231, 6 h): > 100 µM
- EC50 (MDA-MB-231 cells; Homo sapiens, MDA-MB-231, 12 h): 9.6 ± 0.2 µM
- EC50 (MDA-MB-231 cells; Homo sapiens, MDA-MB-231, 18 h): 5.9 ± 0.3 µM
- EC50 (MDA-MB-231 cells; Homo sapiens, MDA-MB-231, 24 h): 4.1 ± 0.1 µM
Structure (SMILES): COc1cccc2c1C(=O)c1c(O)c3c(c(O)c1C2=O)C[C@@](O)(C(=O)CO)C[C@@H]3O[C@H]1C[C@H](N)[C@H](O)[C@H](C)O1 [Doxorubicin, doxorubicin]
